In ChEMBL document CHEMBL3885881, “DrugMatrix”:

Species: Rattus norvegicus
Assay: DrugMatrix - Regimen: Daily Repeat
Format: toxicity, organism-based, Sprague-Dawley
Parameters: regimen Daily Repeat, gender Male, age 6-8 weeks
Conditions: in vivo, po, route oral GAVAGE, vehicle .5 % CMC; for ABSOLUTE BASOPHIL / ABSOLUTE EOSINOPHIL / ABSOLUTE LYMPHOCYTE / ABSOLUTE MONOCYTE / ABSOLUTE SEGMENTED NEUTROPHIL / BASOPHIL / EOSINOPHIL / ERYTHROCYTE COUNT / HEMATOCRIT / HEMOGLOBIN / LEUKOCYTE COUNT / LYMPHOCYTE / MEAN CORPUSCULAR HEMOGLOBIN / MEAN CORPUSCULAR HEMOGLOBIN CONCENTRATION / MEAN CORPUSCULAR VOLUME / MONOCYTE / NEUTROPHIL / NUCLEATED RED BLOOD CELLS / PLATELET COUNT: tissue Blood; for ALANINE AMINOTRANSFERASE / ALBUMIN / ALKALINE PHOSPHATASE / ASPARTATE AMINOTRANSFERASE / BLOOD UREA NITROGEN / CARBON DIOXIDE / CHLORIDE / CHOLESTEROL / CREATINE PHOSPHOKINASE / CREATININE / GLUCOSE / LACTATE DEHYDROGENASE / LIPASE / PHOSPHORUS / POTASSIUM / SODIUM / TOTAL BILIRUBIN / TOTAL PROTEIN / URIC ACID: tissue Plasma
[1] = 12 mg/kg, 72 h, dose level Low, time 3 day
[2] = 12 mg/kg, 120 h, dose level Low, time 5 day
[3] = 1200 mg/kg, 72 h, dose level High, time 3 day
[4] = 1200 mg/kg, 120 h, dose level High, time 5 day

SMILES: CC(=O)OCC(COC(C)=O)OC(C)=O [TRIACETIN]
- ABSOLUTE BASOPHIL [1]: 0 CELLS/uL
- ABSOLUTE EOSINOPHIL [1]: 0 CELLS/uL
- ABSOLUTE LYMPHOCYTE [1]: 13591 CELLS/uL
- ABSOLUTE MONOCYTE [1]: 0 CELLS/uL
- ABSOLUTE SEGMENTED NEUTROPHIL [1]: 1342.33 CELLS/uL
- BASOPHIL [1]: 0%
- EOSINOPHIL [1]: 0%
- ERYTHROCYTE COUNT [1]: 5.57 x10E6/uL
- HEMATOCRIT [1]: 35.43%
- HEMOGLOBIN [1]: 13.97 G/DL
- LEUKOCYTE COUNT [1]: 14.93 x10E3/uL
- LYMPHOCYTE [1]: 91.33%
- MEAN CORPUSCULAR HEMOGLOBIN [1]: 25.13 pg
- MEAN CORPUSCULAR HEMOGLOBIN CONCENTRATION [1]: 39.43 G/DL
- MEAN CORPUSCULAR VOLUME [1]: 63.77 fL
- MONOCYTE [1]: 0%
- NEUTROPHIL [1]: 8.67%
- NUCLEATED RED BLOOD CELLS [1]: 0 /100WBC
- PLATELET COUNT [1]: 1332 x10E3/uL
- ALANINE AMINOTRANSFERASE [1]: 52 u/L
- ALBUMIN [1]: 4.5 G/DL
- ALKALINE PHOSPHATASE [1]: 453.33 u/L
- ASPARTATE AMINOTRANSFERASE [1]: 96.33 u/L
- BLOOD UREA NITROGEN [1]: 14.33 mg/dL
- CARBON DIOXIDE [1]: 21.67 mmol/L
- CHLORIDE [1]: 105 MEQ/L
- CHOLESTEROL [1]: 71.67 mg/dL
- CREATINE PHOSPHOKINASE [1]: 251 u/L
- CREATININE [1]: 0.21 mg/dL
- GLUCOSE [1]: 185 mg/dL
- LACTATE DEHYDROGENASE [1]: 165.33 u/L
- LIPASE [1]: 9.33 u/L
- PHOSPHORUS [1]: 13.93 mg/dL
- POTASSIUM [1]: 6.64 MEQ/L
- SODIUM [1]: 149.57 MEQ/L
- TOTAL BILIRUBIN [1]: 0.17 mg/dL
- TOTAL PROTEIN [1]: 6.2 G/DL
- URIC ACID [1]: 2.07 mg/dL
- ABSOLUTE BASOPHIL [2]: 0 CELLS/uL
- ABSOLUTE EOSINOPHIL [2]: 0 CELLS/uL
- ABSOLUTE LYMPHOCYTE [2]: 15649 CELLS/uL
- ABSOLUTE MONOCYTE [2]: 168.33 CELLS/uL
- ABSOLUTE SEGMENTED NEUTROPHIL [2]: 1016 CELLS/uL
- BASOPHIL [2]: 0%
- EOSINOPHIL [2]: 0%
- ERYTHROCYTE COUNT [2]: 5.29 x10E6/uL
- HEMATOCRIT [2]: 33.97%
- HEMOGLOBIN [2]: 13.27 G/DL
- LEUKOCYTE COUNT [2]: 16.83 x10E3/uL
- LYMPHOCYTE [2]: 93%
- MEAN CORPUSCULAR HEMOGLOBIN [2]: 25.03 pg
- MEAN CORPUSCULAR HEMOGLOBIN CONCENTRATION [2]: 39.07 G/DL
- MEAN CORPUSCULAR VOLUME [2]: 64.17 fL
- MONOCYTE [2]: 1%
- NEUTROPHIL [2]: 6%
- NUCLEATED RED BLOOD CELLS [2]: 0 /100WBC
- PLATELET COUNT [2]: 1422 x10E3/uL
- ALANINE AMINOTRANSFERASE [2]: 45.67 u/L
- ALBUMIN [2]: 4.27 G/DL
- ALKALINE PHOSPHATASE [2]: 402 u/L
- ASPARTATE AMINOTRANSFERASE [2]: 80.33 u/L
- BLOOD UREA NITROGEN [2]: 15 mg/dL
- CARBON DIOXIDE [2]: 24.33 mmol/L
- CHLORIDE [2]: 103.67 MEQ/L
- CHOLESTEROL [2]: 58 mg/dL
- CREATINE PHOSPHOKINASE [2]: 234 u/L
- CREATININE [2]: 0.12 mg/dL
- GLUCOSE [2]: 156 mg/dL
- LACTATE DEHYDROGENASE [2]: 145 u/L
- LIPASE [2]: 8.33 u/L
- PHOSPHORUS [2]: 14.27 mg/dL
- POTASSIUM [2]: 7.19 MEQ/L
- SODIUM [2]: 146.97 MEQ/L
- TOTAL BILIRUBIN [2]: 0.17 mg/dL
- TOTAL PROTEIN [2]: 5.73 G/DL
- URIC ACID [2]: 1.77 mg/dL
- ABSOLUTE BASOPHIL [3]: 0 CELLS/uL
- ABSOLUTE EOSINOPHIL [3]: 0 CELLS/uL
- ABSOLUTE LYMPHOCYTE [3]: 15023 CELLS/uL
- ABSOLUTE MONOCYTE [3]: 340 CELLS/uL
- ABSOLUTE SEGMENTED NEUTROPHIL [3]: 1637 CELLS/uL
- BASOPHIL [3]: 0%
- EOSINOPHIL [3]: 0%
- ERYTHROCYTE COUNT [3]: 5.45 x10E6/uL
- HEMATOCRIT [3]: 35.37%
- HEMOGLOBIN [3]: 13.63 G/DL
- LEUKOCYTE COUNT [3]: 17 x10E3/uL
- LYMPHOCYTE [3]: 88%
- MEAN CORPUSCULAR HEMOGLOBIN [3]: 25 pg
- MEAN CORPUSCULAR HEMOGLOBIN CONCENTRATION [3]: 38.57 G/DL
- MEAN CORPUSCULAR VOLUME [3]: 64.9 fL
- MONOCYTE [3]: 2%
- NEUTROPHIL [3]: 10%
- NUCLEATED RED BLOOD CELLS [3]: 0 /100WBC
- PLATELET COUNT [3]: 1322 x10E3/uL
- ALANINE AMINOTRANSFERASE [3]: 49.33 u/L
- ALBUMIN [3]: 4.13 G/DL
- ALKALINE PHOSPHATASE [3]: 331 u/L
- ASPARTATE AMINOTRANSFERASE [3]: 79.33 u/L
- BLOOD UREA NITROGEN [3]: 14 mg/dL
- CARBON DIOXIDE [3]: 19 mmol/L
- CHLORIDE [3]: 102 MEQ/L
- CHOLESTEROL [3]: 69.67 mg/dL
- CREATINE PHOSPHOKINASE [3]: 229 u/L
- CREATININE [3]: 0.18 mg/dL
- GLUCOSE [3]: 149.33 mg/dL
- LACTATE DEHYDROGENASE [3]: 172.67 u/L
- LIPASE [3]: 10 u/L
- PHOSPHORUS [3]: 14.13 mg/dL
- POTASSIUM [3]: 7.15 MEQ/L
- SODIUM [3]: 145.03 MEQ/L
- TOTAL BILIRUBIN [3]: 0.17 mg/dL
- TOTAL PROTEIN [3]: 5.83 G/DL
- URIC ACID [3]: 1.73 mg/dL
- ABSOLUTE BASOPHIL [4]: 0 CELLS/uL
- ABSOLUTE EOSINOPHIL [4]: 0 CELLS/uL
- ABSOLUTE LYMPHOCYTE [4]: 12251.33 CELLS/uL
- ABSOLUTE MONOCYTE [4]: 0 CELLS/uL
- ABSOLUTE SEGMENTED NEUTROPHIL [4]: 1215.33 CELLS/uL
- BASOPHIL [4]: 0%
- EOSINOPHIL [4]: 0%
- ERYTHROCYTE COUNT [4]: 5.48 x10E6/uL
- HEMATOCRIT [4]: 34.33%
- HEMOGLOBIN [4]: 13.57 G/DL
- LEUKOCYTE COUNT [4]: 13.47 x10E3/uL
- LYMPHOCYTE [4]: 91%
- MEAN CORPUSCULAR HEMOGLOBIN [4]: 24.77 pg
- MEAN CORPUSCULAR HEMOGLOBIN CONCENTRATION [4]: 39.6 G/DL
- MEAN CORPUSCULAR VOLUME [4]: 62.6 fL
- MONOCYTE [4]: 0%
- NEUTROPHIL [4]: 9%
- NUCLEATED RED BLOOD CELLS [4]: 0 /100WBC
- PLATELET COUNT [4]: 1274.67 x10E3/uL
- ALANINE AMINOTRANSFERASE [4]: 49.33 u/L
- ALBUMIN [4]: 4.07 G/DL
- ALKALINE PHOSPHATASE [4]: 315.33 u/L
- ASPARTATE AMINOTRANSFERASE [4]: 87.67 u/L
- BLOOD UREA NITROGEN [4]: 16.67 mg/dL
- CARBON DIOXIDE [4]: 25 mmol/L
- CHLORIDE [4]: 103 MEQ/L
- CHOLESTEROL [4]: 71 mg/dL
- CREATINE PHOSPHOKINASE [4]: 262.67 u/L
- CREATININE [4]: 0.16 mg/dL
- GLUCOSE [4]: 147.33 mg/dL
- LACTATE DEHYDROGENASE [4]: 331 u/L
- LIPASE [4]: 8.33 u/L
- PHOSPHORUS [4]: 13.2 mg/dL
- POTASSIUM [4]: 6.8 MEQ/L
- SODIUM [4]: 145.37 MEQ/L
- TOTAL BILIRUBIN [4]: 0.17 mg/dL
- TOTAL PROTEIN [4]: 6 G/DL
- URIC ACID [4]: 1.37 mg/dL
